Assay results taken from patent publication US20200216417A1, “INHIBITORS OF FIBROBLAST ACTIVATION PROTEIN” (Praxis Biotech LLC, priority 2019, published 2020).
pIC50: −log10 of the molar value. Where two headings read alike, the source gives them in different places.

What was measured:
[1] = biological target: T1, recombinant human FAPα (rhFAPα) (Homo sapiens, UniProt Q12884); assay: FAPα enzymatic exopeptidase (dipeptidase) activity assay, Z-Gly-Pro-AMC; format: biochemical
T1 construct: purchased R&S system (so in the source)
T1 sequence (Q12884 1-760): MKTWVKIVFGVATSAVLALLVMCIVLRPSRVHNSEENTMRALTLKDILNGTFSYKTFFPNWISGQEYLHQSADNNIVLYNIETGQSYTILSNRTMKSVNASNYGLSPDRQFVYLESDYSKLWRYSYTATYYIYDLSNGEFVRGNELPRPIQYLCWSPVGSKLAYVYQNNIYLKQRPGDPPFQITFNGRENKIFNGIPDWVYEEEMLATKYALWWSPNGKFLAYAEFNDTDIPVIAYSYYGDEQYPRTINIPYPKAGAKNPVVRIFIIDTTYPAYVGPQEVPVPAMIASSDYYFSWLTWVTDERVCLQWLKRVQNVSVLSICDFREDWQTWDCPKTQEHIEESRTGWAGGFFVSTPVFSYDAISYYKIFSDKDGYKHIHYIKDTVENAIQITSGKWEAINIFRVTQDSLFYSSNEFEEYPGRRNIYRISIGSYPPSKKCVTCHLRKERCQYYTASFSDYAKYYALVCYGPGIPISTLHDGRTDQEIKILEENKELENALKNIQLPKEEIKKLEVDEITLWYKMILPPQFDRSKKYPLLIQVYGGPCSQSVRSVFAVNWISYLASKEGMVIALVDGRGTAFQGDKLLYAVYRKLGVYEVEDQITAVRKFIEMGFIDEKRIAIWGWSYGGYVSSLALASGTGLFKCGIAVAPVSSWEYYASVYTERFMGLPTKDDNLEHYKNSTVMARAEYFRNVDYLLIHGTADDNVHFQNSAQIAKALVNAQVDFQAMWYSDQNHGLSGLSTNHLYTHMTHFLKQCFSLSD

[2] = biological target: T2, recombinant human DPP9 (rhDPP9) (Homo sapiens, UniProt Q86TI2); assay: DPP9 inhibition assay, 10 ng rhDPP9, Tris-HCl/BSA buffer; format: biochemical; conditions: Table 3B
T2 construct: purchased R&S system / R&D systems (both sic) 5419-SE

[3] = biological target: T2, recombinant human DPP9 (rhDPP9); assay: DPP9 enzymatic activity assay, 40 ng rhDPP9, HEPES buffer; format: biochemical; conditions: Table 3A
[4] = biological target: T3, recombinant human PREP (rhPREP) (Homo sapiens, UniProt P48147); assay: PREP enzymatic activity assay, Z-Gly-Pro-AMC; format: biochemical
T3 sequence (P48147 1-710): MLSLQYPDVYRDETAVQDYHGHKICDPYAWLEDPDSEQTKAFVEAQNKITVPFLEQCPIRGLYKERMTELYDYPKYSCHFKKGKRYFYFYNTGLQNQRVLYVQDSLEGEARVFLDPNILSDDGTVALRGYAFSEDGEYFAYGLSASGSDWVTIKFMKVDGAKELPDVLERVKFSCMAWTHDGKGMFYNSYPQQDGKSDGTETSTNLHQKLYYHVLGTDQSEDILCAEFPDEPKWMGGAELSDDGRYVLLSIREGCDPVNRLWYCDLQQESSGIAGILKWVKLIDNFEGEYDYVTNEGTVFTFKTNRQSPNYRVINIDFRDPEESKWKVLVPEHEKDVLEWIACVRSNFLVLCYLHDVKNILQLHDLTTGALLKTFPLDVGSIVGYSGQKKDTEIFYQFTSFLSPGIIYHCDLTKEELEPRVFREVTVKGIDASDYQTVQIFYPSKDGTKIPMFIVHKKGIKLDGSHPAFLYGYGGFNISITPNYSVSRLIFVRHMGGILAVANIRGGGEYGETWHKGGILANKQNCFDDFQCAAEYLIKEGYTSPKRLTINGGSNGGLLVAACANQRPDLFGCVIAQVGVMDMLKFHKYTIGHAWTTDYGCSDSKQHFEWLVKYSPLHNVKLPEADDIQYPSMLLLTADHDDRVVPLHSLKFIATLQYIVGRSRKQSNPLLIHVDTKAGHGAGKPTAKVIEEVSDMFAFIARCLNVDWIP

[5] = biological target: T4, DPPIV (Mus musculus, UniProt P28843); assay: DPPIV enzymatic activity in mouse plasma (H-Gly-Pro-AMC); format: biochemical, C57BL/6 mouse; conditions: H-Gly-Pro-AMC substrate
T4 construct: from tissue; host or cells: C57BL/6 mouse plasma (EDTA)
Experimental: Approximately 500 μL of whole blood from one C57BL/6 mouse was harvested into BD Microtainer® tubes (K2) EDTA (#365974, Becton Dickinson and Co.) via terminal cardiac puncture. The blood sample was immediately centrifuged at approximately 9000 g at 4° C. for 5 minutes. Plasma was separated and stored at −80° C. in aliquots of 300 μL. To assay baseline DPPIV enzymatic exopeptidase activity, 5 μL of thawed, mouse plasma was diluted (1:5) in buffer (100 mM Tris-HCl, 400 mM NaCl, 50 mM salicylic acid, 1 mM EDTA, pH 7.5) and mixed with 35 μL of the same buffer before being pre-incubated with different concentrations of 10 μL of test compounds or DMSO vehicle for 15 minutes at 37° C. in 96-well black plates (Nunc, #237108). After pre-incubation, 50 μL of 200 μM dipeptide substrate H-Gly-Pro-AMC (Bachem, # L-1225) was added to the mixture. The assay was performed for 1 hour at 37° C. 7-Amino-4-Methylcoumarin (AMC) release was detected measuring fluorescence at an excitation wavelength of 360 nm and an emission wavelength of 460 nm using a Multifunction Microplate Reader (Synergy 4, Biotek). All measurements were carried out at least in duplicate.

[6] = exopeptidase, Table 2, read-out: rhFAPα (exo IC50)
[7] = exopeptidase, Table 3A, read-out: rhFAPα (exo IC50)
[8] = read-out: rhFAPα % exo inh @ 1 μM
[9] = read-out: rhFAPα (% exo inh @ 1 μM)
[10] = exopeptidase inhibition at 1 μM test compound, Table 2, read-out: rhFAPα (% exo inh @ 1 μM)
[11] = exopeptidase inhibition at 1 μM test compound, Table 3B, read-out: rhFAPα % exo inh @ 1 μM

T4 sequence (P28843 37-760 limits assumed): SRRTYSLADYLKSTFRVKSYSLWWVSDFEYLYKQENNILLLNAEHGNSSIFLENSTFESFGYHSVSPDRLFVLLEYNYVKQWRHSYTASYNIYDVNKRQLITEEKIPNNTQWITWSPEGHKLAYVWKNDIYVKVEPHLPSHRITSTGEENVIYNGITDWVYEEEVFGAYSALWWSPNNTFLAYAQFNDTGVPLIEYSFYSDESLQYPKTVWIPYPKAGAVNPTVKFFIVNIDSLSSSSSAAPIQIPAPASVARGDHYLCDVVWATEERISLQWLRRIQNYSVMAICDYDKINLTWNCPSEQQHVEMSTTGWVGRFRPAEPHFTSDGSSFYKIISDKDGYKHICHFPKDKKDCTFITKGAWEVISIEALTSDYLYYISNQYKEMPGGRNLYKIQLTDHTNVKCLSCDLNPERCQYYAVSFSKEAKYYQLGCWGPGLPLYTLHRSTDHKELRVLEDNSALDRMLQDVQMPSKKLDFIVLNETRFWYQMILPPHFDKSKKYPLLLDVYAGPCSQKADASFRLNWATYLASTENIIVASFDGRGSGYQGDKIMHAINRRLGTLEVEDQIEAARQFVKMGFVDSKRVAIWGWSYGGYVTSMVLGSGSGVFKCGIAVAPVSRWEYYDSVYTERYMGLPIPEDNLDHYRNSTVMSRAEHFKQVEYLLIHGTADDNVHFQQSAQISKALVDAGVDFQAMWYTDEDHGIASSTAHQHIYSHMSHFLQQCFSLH
T2 sequence (Q86TI2 whole entry): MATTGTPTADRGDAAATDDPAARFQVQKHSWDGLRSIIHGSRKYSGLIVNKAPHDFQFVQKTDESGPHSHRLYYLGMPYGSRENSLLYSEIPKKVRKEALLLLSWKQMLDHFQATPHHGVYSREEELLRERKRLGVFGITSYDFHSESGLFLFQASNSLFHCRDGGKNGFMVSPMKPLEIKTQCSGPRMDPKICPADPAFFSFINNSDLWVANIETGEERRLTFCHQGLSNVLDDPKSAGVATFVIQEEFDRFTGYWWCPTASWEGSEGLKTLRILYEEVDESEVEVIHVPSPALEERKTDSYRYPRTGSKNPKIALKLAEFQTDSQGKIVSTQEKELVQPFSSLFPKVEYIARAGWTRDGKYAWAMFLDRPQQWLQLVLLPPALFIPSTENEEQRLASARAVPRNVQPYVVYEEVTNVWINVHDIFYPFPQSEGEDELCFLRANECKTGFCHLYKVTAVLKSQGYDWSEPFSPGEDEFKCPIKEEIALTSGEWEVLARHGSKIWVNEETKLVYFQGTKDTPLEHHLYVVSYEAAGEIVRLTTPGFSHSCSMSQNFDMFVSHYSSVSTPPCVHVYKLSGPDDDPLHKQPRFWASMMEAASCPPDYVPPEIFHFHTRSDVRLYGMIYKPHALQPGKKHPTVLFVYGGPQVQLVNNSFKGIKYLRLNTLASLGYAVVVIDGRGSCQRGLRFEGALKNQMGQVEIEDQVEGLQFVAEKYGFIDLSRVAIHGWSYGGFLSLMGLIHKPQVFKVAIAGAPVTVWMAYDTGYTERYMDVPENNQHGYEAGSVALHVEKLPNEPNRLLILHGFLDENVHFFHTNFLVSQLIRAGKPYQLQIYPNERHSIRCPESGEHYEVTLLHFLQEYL

Compound | pIC50 ([1]; Table 3B, read-out: rhFAP IC50) | pIC50 [1, 6] | pIC50 [1, 7] | pIC50 [2] | pIC50 [3] | pIC50 ([4]; Table 3A) | pIC50 ([4]; Table 3B) | pIC50 [5] | inhibition at 1 µM [1, 10] | inhibition at 1 µM [1, 11] | inhibition at 1 µM [1, 8] | inhibition at 1 µM [1, 9]
N#C[C@@H]1CC(F)(F)CN1C(=O)CNC(=O)c1ccncc1/C=C/c1ccc(Cl)cc1 [Compound 9, (S,E)-3-(4-chlorostyryl)-N-(2-(2-cyano-4,4-difluoropyrrolidin-1-yl)-2-oxoethyl)isonicotinamide] | > 6.00 | > 6.00 | > 6.00 | > 6.00 | > 6.00 | < 5.00 | < 5.00 | > 5.00 | – | – | > 50% | > 50%
N#C[C@@H]1CC(F)(F)CN1C(=O)CNC(=O)c1ccncc1Cc1ccc(F)cc1 [Compound 8, (S)—N-(2-(2-cyano-4,4-difluoropyrrolidin-1-yl)-2-oxoethyl)-3-(4-fluorobenzyl)isonicotinamide] | > 6.00 | > 6.00 | > 6.00 | 5.00 to 6.00 | 5.00 to 6.00 | < 5.00 | < 5.00 | > 5.00 | > 50% | > 50% | – | –
COc1ccc(C(=O)Nc2cnccc2C(=O)NCC(=O)N2CC(F)(F)C[C@H]2C#N)cc1 [Compound 3, (S)—N-(2-(2-cyano-4,4-difluoropyrrolidin-1-yl)-2-oxoethyl)-3-(4-methoxybenzamido)isonicotinamide] | > 6.00 | > 6.00 | > 6.00 | 5.00 to 6.00 | 5.00 to 6.00 | < 5.00 | < 5.00 | 5.00 to 6.00 | – | – | > 50% | > 50%

Continued, in another order:

pIC50 ([1]; Table 3B, read-out: rhFAP IC50) | pIC50 [1, 6] | pIC50 [1, 7] | pIC50 [2] | pIC50 [3] | pIC50 ([4]; Table 3A) | pIC50 ([4]; Table 3B) | pIC50 [5] | inhibition at 1 µM [1, 10] | inhibition at 1 µM [1, 11] | Compound | inhibition at 1 µM [1, 8] | inhibition at 1 µM [1, 9]
> 6.00 | > 6.00 | > 6.00 | 5.00 to 6.00 | 5.00 to 6.00 | < 5.00 | < 5.00 | > 6.00 | > 50% | > 50% | N#C[C@@H]1CC(F)(F)CN1C(=O)CNC(=O)c1ccncc1NC(=O)COc1ccc(Cl)c(F)c1 [Compound 5, (S)-3-(2-(4-chloro-3-fluorophenoxy)acetamido)-N-(2-(2-cyano-4,4-difluoropyrrolidin-1-yl)-2-oxoethyl)isonicotinamide] | – | –
> 6.00 | > 6.00 | > 6.00 | 5.00 to 6.00 | 5.00 to 6.00 | 5.00 to 6.00 | 5.00 to 6.00 | > 5.00 | > 50% | > 50% | N#C[C@@H]1CC(F)(F)CN1C(=O)CNC(=O)c1ccncc1Cc1ccccc1F [Compound 7, (S)—N-(2-(2-cyano-4,4-difluoropyrrolidin-1-yl)-2-oxoethyl)-3-(2-fluorobenzyl)isonicotinamide] | – | –
> 6.00 | > 6.00 | > 6.00 | < 5.00 | < 5.00 | < 5.00 | < 5.00 | > 5.00 | > 50% | > 50% | N#C[C@@H]1CC(F)(F)CN1C(=O)CNC(=O)c1ccncc1NCc1ccc(F)cc1 [Compound 2, (S)—N-(2-(2-cyano-4,4-difluoropyrrolidin-1-yl)-2-oxoethyl)-3-((4-fluorobenzyl)amino)isonicotinamide] | – | –
